Source: PubChem BioAssay (NCI)
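The compound was tested at five concentrations on cells cultured in 96-well plates, with a 48-hour exposure period. GI50 marks 50% less growth. The concentration for full growth arrest is given as TGI.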

These molecules were tested on RPMI-8226 leukemia (assay: DTP human tumour cell line panel, 48 h).

Structure (SMILES)	GI50 [µM]	TGI [µM]
COC(=O)c1c(O)ccc2[nH]c(C)c(C#N)c12	27.3	> 100
CC1(C)OC(=O)C=C([O-])O1.CC1(C)OC(=O)C=C([O-])O1.O=c1c(O)c(-c2ccc([O-])cc2[O-])oc2cc(O)cc(O)c12.[Ti+4]	59	> 100

What follows are molecules tested on HOP-62 NSCLC (assay: DTP human tumour cell line panel, 48 h).

Structure (SMILES)	TGI [µM]	GI50 [µM]
CN(C)C(=S)/N=c1\ss/c(=N\S(=O)(=O)c2ccccc2)n1-c1ccccc1	98.3	
COc1cc2c3c(n(CCCN4CCC(N)CC4)c(=O)c2cc1OC)-c1cc2c(cc1C3=O)OCO2	1.11	0.423
C=C(C)[C@@H]1CC[C@@]2(C(=O)O)CC[C@]3(C)C(CCC4[C@@]5(C)CCC(OS(=O)(=O)c6ccccc6)C(C)(C)C5CC[C@]43C)C12 (stereo partly specified)	18.5	5.15
O=C(N/N=C/c1ccc(Cl)cc1Cl)c1ccccc1Nc1cccc(C(F)(F)F)c1	18.3	5.36
CCOC(=O)Cc1nc(/C(C#N)=C/c2ccco2)[nH]c(=O)c1C#N	> 100	
CC1=Nc2c(ccc3c2C(=O)c2ccccc2C3=O)NC(c2ccncc2)C1 (stereo unspecified)	> 100	
COc1cc(/C=C\c2ccc(O)cc2)cc(OC)c1OC	> 100	
C=C(COC(C)=O)CC(/C=C(\C)CCC=C(C)C)OC(C)=O (stereo unspecified)	> 100	
CC1(C)CCc2cc3c(cc2O1)OCCC3=O	> 100	
COc1ccc(-c2cc(-c3cc(Cl)ccc3Cl)nc3nc(=S)[nH]c(N)c23)cc1	28.3	14.9
Oc1c2c(c(O)c3ccccc13)=N[C@@H](c1ccccc1)[C@H](c1ccccc1)N=2	> 100	
c1cc[c]([Sn]([S]c2cccc3cccnc23)([c]2ccccc2)[c]2ccccc2)cc1	0.368	0.103
O=C1CCn2c([nH]c3cccc4cccc2c43)=N1	> 100	
CCOc1cccc2nc3cccc(C(=O)NCCN(C)C)c3nc12	2.18	
Cc1cc(C)nc(NS(=O)(=O)c2ccc(Nc3c4ccccc4nc4c(C(=O)N5CCN(CCOS(C)(=O)=O)CC5)ccc(Cl)c34)cc2)n1	> 100	
C=CC(=O)N1CCN(c2ncnc3c(F)c(-c4c(O)cccc4F)c(Cl)cc23)CC1	20.7	0.211
CN1CCN(C)C1c1cccc(C2N(C)CCN2C)c1	> 100	
CC(=O)OCCOCBr	> 100	

Structure (SMILES)	TGI [µM]	GI50 [µM]
O=C1c2ccccc2-c2c1c1ccccc1c(=O)n2CCNCCCNCCn1c2c(c3ccccc3c1=O)C(=O)c1ccccc1-2	1.16	0.0723
CC(O)CN1C(=O)NC(Cc2ccccc2)C1=O (stereo unspecified)	86.3	
O=C(c1ccccc1)[C@H]1Nc2cnccc2C2c3ccccc3CC21 (stereo partly specified)	> 71.4	
COc1ccc(C(=O)C(C(=O)CCC(=O)Nc2cccc(C(F)(F)F)c2)c2ccccc2)cc1 (stereo unspecified)	> 100	
NC1=NC(=O)C(CC(=O)Nc2ccc([N+](=O)[O-])cc2[N+](=O)[O-])S1 (stereo unspecified)	> 100	
O=C1c2ccccc2-c2cccc3ccc(Cc4ccccc4)c1c23	> 100	
CC/C=C\C/C=C\C1CC(=O)NCCCNCCCCN1 (stereo unspecified)	> 100	
CC1CCCC(C(=O)/C(=C/c2cccc(Cl)c2)C(=O)C(=O)O)C1 (stereo unspecified)	> 100	
CC(=O)c1c(C)n([O-])c2cc(C)c(C)cc2[n+]1=O	> 100	
C=C1C(=O)O[C@H]2[C@H]1CC/C(COC(=O)c1cc3cc(OC)ccc3[nH]1)=C\CC[C@@]1(C)O[C@@H]21	3.29	1.64
CCCS(=O)(=O)c1nc(NC2CC2)cc(-c2ccc3c(ccn3C3CC(C)(C)NC(C)(C)C3)c2)n1	3.4	1.73
N#CC(C#N)=Cc1cccc(Oc2ccccc2)c1	64.6	
COc1ccc(/C=C/C(=O)c2sc(-n3nc(-c4ccccc4)cc3-c3ccccc3)nc2C)cc1OC	> 100	
COC(=O)c1c(O)ccc2[nH]c(C)c(C#N)c12	81	22.7
NC(CCSCC(F)F)C(=O)O (stereo unspecified)	> 100	
COC(=O)NC/C=C\c1nc(CC/C=C\C(=O)OC2CC3CC(=O)O[C@@H](/C=C/CC(C)C)C[C@@H]4CCC(C)C(C[C@@H](OC)CC(C2)O3)O4)co1 (stereo partly specified)	79	< 0.01
CC1(C)OC(=O)C=C([O-])O1.CC1(C)OC(=O)C=C([O-])O1.O=c1c(O)c(-c2ccc([O-])cc2[O-])oc2cc(O)cc(O)c12.[Ti+4]	> 100	

The molecules below were run on SK-OV-3 ovarian (assay: DTP human tumour cell line panel, 48 h).

Structure (SMILES)	TGI [µM]
CN(C)C(=S)/N=c1\ss/c(=N\S(=O)(=O)c2ccccc2)n1-c1ccccc1	> 100
